These results are taken from patent publication US20260265329A1, “POLYPEPTIDE AND DERIVATIVE THEREOF, COMPOSITION, AND USE THEREOF” (HANGZHOU SCIWIND BIOSCIENCES CO., LTD., priority 2023, published 2026).

A short description of series [1]: Heat accelerated stability assay, 40° C., detection on 7 d and 28 d. The class given is physicochemical. Conditions: for Purity from the reversed phase chromatography-214 nm, 0 d / Purity from the reversed phase chromatography-214 nm, 7 d / Purity from the reversed phase chromatography-214 nm, 28 d: 1 mg/mL, pH about 7.4, 40° C.; for Change (7 d − 0 d): purity on 7 d − purity on 0 d; for Change (7 d − 0 d) / Change (28 d − 0 d): 40° C., pH about 7.4; for Change (28 d − 0 d): purity on 28 d − purity on 0 d. The method, then:
The derivatives (1 mg/mL) were mixed with sodium dihydrogen phosphate (1.42 mg/mL) and dissolved in ultrapure water. After adjusting pH to about 7.4 with hydrochloric acid/sodium hydroxide, the solution was filtered into a sterilized vial in a clean bench using a 0.22 μm sterile filter. The vial was then capped and placed into the stability test chamber at 40° C. Detections were made on Days 7 (7d) and 28 (28d), and during the assay, changes in the characteristics and properties of the polypeptides were observed and recorded. The sample was then centrifuged for 3 min at 10000 rpm at 4° C., and the supernatant was transferred to a liquid phase sample vial for detecting the concentration and purity of the polypeptides using liquid phase chromatography described as below.
Conditions of the reversed phase chromatography Flow rate: 1.0 mL/min; Autosampler temperature: 15° C.; Column temperature: 25° C.; Detection wavelength: 214 nm; Mobile phase A: 100% H2O+0.05% TFA; Mobile phase B: 100% ACN; and Gradient of elution listed in Table 4: […]

Series [2] addresses T1, human amylin receptors (Homo sapiens, UniProt O60896+P30988).
T1 construct: host or cells: CHO-K1/Ga15/AMY3 cells, further stably transfected with a CRE-luciferase plasmid
T1 sequence (P30988 25-474): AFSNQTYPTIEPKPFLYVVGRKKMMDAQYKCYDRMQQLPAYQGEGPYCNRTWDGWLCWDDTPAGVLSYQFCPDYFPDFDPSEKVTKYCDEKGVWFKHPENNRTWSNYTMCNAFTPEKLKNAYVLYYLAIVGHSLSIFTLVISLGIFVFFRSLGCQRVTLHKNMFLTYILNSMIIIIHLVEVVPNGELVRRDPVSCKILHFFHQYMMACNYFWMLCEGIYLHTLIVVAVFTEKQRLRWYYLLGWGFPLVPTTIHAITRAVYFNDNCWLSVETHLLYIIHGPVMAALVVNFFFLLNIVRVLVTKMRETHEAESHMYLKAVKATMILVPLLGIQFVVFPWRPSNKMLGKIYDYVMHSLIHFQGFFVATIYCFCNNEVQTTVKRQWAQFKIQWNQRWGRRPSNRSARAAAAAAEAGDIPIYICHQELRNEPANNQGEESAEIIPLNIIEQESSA
T1 sequence (O60896 24-148 partner): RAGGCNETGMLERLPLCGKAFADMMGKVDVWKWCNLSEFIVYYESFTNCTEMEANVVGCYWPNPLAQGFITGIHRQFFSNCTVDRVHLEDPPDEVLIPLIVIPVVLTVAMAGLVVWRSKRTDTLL
The series can be described thus: Luciferase assay in stably transfected amylin receptor/CRE-luc CHO cell line. The class given is cell-based. The conditions noted are these: for Relative activity: EC50 ratio of Cagrilintide to the compound, Cagrilintide 100%; for EC50: amylin receptor/CRE-luc CHO cells, 24 hours incubation, luminescence.

Starred links: 1 amine or outer side, 2 acyl side, 3 side chain; linkers in the order of their positions; H or OH if unused. Non-standard residues stand in square brackets, D forms with d. Residues, ends and D or L forms follow the SMILES beside them. *: point of attachment. C20 diacid = O=C(O)CCCCCCCCCCCCCCCCCCC(=O)*; γGlu = O=C(O)[C@H](CCC(=O)[*:2])N[*:1]; Hyp = O=C(O)[C@@H]1C[C@@H](O)CN1

As to `CC[C@H](C)[C@H](NC(=O)[C@@H]1CCCN1C(=O)[C@H](CCCCN)NC(=O)[C@H](CC(C)C)NC(=O)[C@H](CC(N)=O)NC(=O)[C@H](CC(N)=O)NC(=O)[C@H](CO)NC(=O)[C@H](CO)NC(=O)[C@H](Cc1c[nH]cn1)NC(=O)[C@H](CCCNC(=N)N)NC(=O)[C@H](CC(C)C)NC(=O)[C@H](Cc1ccccc1)NC(=O)[C@H](CC(=O)O)NC(=O)[C@H](C)NC(=O)[C@H](CC(C)C)NC(=O)[C@H](CCCNC(=N)N)NC(=O)CNC(=O)[C@H](CC(C)C)NC(=O)[C@@H](NC(=O)[C@H](C)NC(=O)[C@@H](NC(=O)[C@H](CO)NC(=O)[C@H](CC(C)C)NC(=O)[C@H](CCC(N)=O)NC(=O)[C@H](CO)NC(=O)[C@H](C)NC(=O)CC[C@H](NC(=O)CCCCCCCCCCCCCCCCCCC(=O)O)C(=O)O)[C@@H](C)O)C(C)C)C(=O)N[C@@H](CC(C)C)C(=O)N1CCC[C@H]1C(=O)N1CCC[C@H]1C(=O)N[C@H](C(=O)N[C@@H](CC(N)=O)C(=O)N[C@H](C(=O)NCC(=O)N[C@@H](CO)C(=O)N[C@@H](CC(N)=O)C(=O)N[C@H](C(=O)N1C[C@H](O)C[C@H]1C(N)=O)[C@@H](C)O)C(C)C)[C@@H](C)O` [M2] ({C20 diacid-γGlu}-ASQLSTAVLGRLADFLRHSSNNLKPILPPTNVGSNT[Hyp]-NH2), in series [1], the “Purity from the reversed phase chromatography-214 nm, 0 d” value (from here on “Purity … 0 d”) is listed as 85.15; the “Purity from the reversed phase chromatography-214 nm, 7 d” value (“Purity … 7 d” for short) came to 85.16; the “Purity from the reversed phase chromatography-214 nm, 28 d” value (“Purity … 28 d” for short) is 85.44; the “Change (7 d − 0 d)” value is reported as 0.01. Further, the “Change (28 d − 0 d)” value in series [1] is 0.29. Also, in series [2], the Relative activity was 68% and the EC50 was 0.038 nM.

With `CC[C@H](C)[C@H](NC(=O)[C@H](CC(=O)O)NC(=O)[C@H](CCCNC(=N)N)NC(=O)[C@H](CC(=O)O)NC(=O)[C@H](CCCNC(=N)N)NC(=O)[C@H](CC(=O)O)NC(=O)[C@@H](NC(=O)[C@H](Cc1ccccc1)NC(=O)[C@H](Cc1c[nH]cn1)NC(=O)[C@H](CCCNC(=N)N)NC(=O)[C@H](CC(C)C)NC(=O)[C@H](Cc1ccccc1)NC(=O)[C@H](CC(=O)O)NC(=O)[C@H](C)NC(=O)[C@H](CC(C)C)NC(=O)[C@H](CCCNC(=N)N)NC(=O)CNC(=O)[C@H](CC(C)C)NC(=O)[C@@H](NC(=O)[C@H](C)NC(=O)[C@@H](NC(=O)[C@H](CO)NC(=O)[C@H](CC(C)C)NC(=O)[C@H](CCC(N)=O)NC(=O)[C@H](CO)NC(=O)[C@H](C)NC(=O)CC[C@H](NC(=O)CCCCCCCCCCCCCCCCCCC(=O)O)C(=O)O)[C@@H](C)O)C(C)C)[C@@H](C)O)C(=O)N[C@@H](CC(C)C)C(=O)N1CCC[C@H]1C(=O)N1CCC[C@H]1C(=O)N[C@H](C(=O)N[C@@H](CC(N)=O)C(=O)N[C@H](C(=O)NCC(=O)N[C@@H](CO)C(=O)N[C@@H](CC(N)=O)C(=O)N[C@H](C(=O)N1CCC[C@H]1C(N)=O)[C@@H](C)O)C(C)C)[C@@H](C)O` [M4] ({C20 diacid-γGlu}-ASQLSTAVLGRLADFLRHFTDRDRDILPPTNVGSNTP-NH2), in series [1], the “Purity … 0 d” value worked out at 95; the “Purity … 7 d” value is given as 94.22; the “Purity … 28 d” value turned out to be 92.25; the “Change (7 d − 0 d)” value is −0.78. The “Change (28 d − 0 d)” value in series [1] is given as −2.75. For the same compound, in series [2], the Relative activity is 32% and the EC50 was determined as 0.081 nM.

For `CC[C@H](C)[C@H](NC(=O)[C@@H]1CCCN1C(=O)[C@H](CCCCN)NC(=O)[C@H](CC(C)C)NC(=O)[C@H](CC(N)=O)NC(=O)[C@H](CC(N)=O)NC(=O)[C@H](CO)NC(=O)[C@H](CO)NC(=O)[C@H](Cc1c[nH]cn1)NC(=O)[C@H](CCCNC(=N)N)NC(=O)[C@H](CC(C)C)NC(=O)[C@H](Cc1ccccc1)NC(=O)[C@H](CC(=O)O)NC(=O)[C@H](C)NC(=O)[C@H](CC(C)C)NC(=O)[C@H](CCCNC(=N)N)NC(=O)[C@H](CCC(N)=O)NC(=O)[C@@H](NC(=O)[C@H](C)NC(=O)[C@H](C)NC(=O)[C@@H](NC(=O)[C@H](CO)NC(=O)[C@H](CC(C)C)NC(=O)[C@H](CCC(N)=O)NC(=O)[C@H](CO)NC(=O)[C@H](C)NC(=O)CC[C@H](NC(=O)CCCCCCCCCCCCCCCCCCC(=O)O)C(=O)O)[C@@H](C)O)[C@@H](C)O)C(=O)N[C@@H](CC(C)C)C(=O)N1CCC[C@H]1C(=O)N1CCC[C@H]1C(=O)N[C@H](C(=O)N[C@@H](CC(N)=O)C(=O)N[C@H](C(=O)NCC(=O)N[C@@H](CO)C(=O)N[C@@H](CC(N)=O)C(=O)N[C@H](C(=O)N1C[C@H](O)C[C@H]1C(N)=O)[C@@H](C)O)C(C)C)[C@@H](C)O` [M5] ({C20 diacid-γGlu}-ASQLSTAATQRLADFLRHSSNNLKPILPPTNVGSNT[Hyp]-NH2), in series [1], the “Purity … 0 d” value is 92.36; the “Purity … 7 d” value turned out to be 91.35; the “Purity … 28 d” value amounted to 91.34; the “Change (7 d − 0 d)” value is reported as −1.01. Further, in series [1], the “Change (28 d − 0 d)” value was −1.02. In series [2], the Relative activity was 84% and the EC50 is 0.031 nM.

“M10: ASQLSTAVLQRLADFLRHFTDRDRDILPPTNVGSNTP-NH2 (SEQ ID No. 10), N-terminal side chain C20 diacid + γGlu ({C20 diacid-γGlu}-ASQLSTAVLQRLADFLRHFTDRDRDILPPTNVGSNTP-NH2; SMILES CC[C@H](C)[C@H](NC(=O)[C@H](CC(=O)O)NC(=O)[C@H](CCCNC(=N)N)NC(=O)[C@H](CC(=O)O)NC(=O)[C@H](CCCNC(=N)N)NC(=O)[C@H](CC(=O)O)NC(=O)[C@@H](NC(=O)[C@H](Cc1ccccc1)NC(=O)[C@H](Cc1c[nH]cn1)NC(=O)[C@H](CCCNC(=N)N)NC(=O)[C@H](CC(C)C)NC(=O)[C@H](Cc1ccccc1)NC(=O)[C@H](CC(=O)O)NC(=O)[C@H](C)NC(=O)[C@H](CC(C)C)NC(=O)[C@H](CCCNC(=N)N)NC(=O)[C@H](CCC(N)=O)NC(=O)[C@H](CC(C)C)NC(=O)[C@@H](NC(=O)[C@H](C)NC(=O)[C@@H](NC(=O)[C@H](CO)NC(=O)[C@H](CC(C)C)NC(=O)[C@H](CCC(N)=O)NC(=O)[C@H](CO)NC(=O)[C@H](C)NC(=O)CC[C@H](NC(=O)CCCCCCCCCCCCCCCCCCC(=O)O)C(=O)O)[C@@H](C)O)C(C)C)[C@@H](C)O)C(=O)N[C@@H](CC(C)C)C(=O)N1CCC[C@H]1C(=O)N1CCC[C@H]1C(=O)N[C@H](C(=O)N[C@@H](CC(N)=O)C(=O)N[C@H](C(=O)NCC(=O)N[C@@H](CO)C(=O)N[C@@H](CC(N)=O)C(=O)N[C@H](C(=O)N1CCC[C@H]1C(N)=O)[C@@H](C)O)C(C)C)[C@@H](C)O)”: in series [1] (in % (unit assumed)), the “Purity … 0 d” value is listed as 94.73; the “Purity … 7 d” value was 94.89; the “Change (28 d − 0 d)” value was −0.93. Further, in series [1], the Purity from the reversed phase chromatography-214 nm, 28 d amounted to 93.8% and the Change (7 d − 0 d) was found to be 0.16%.

As usually defined, the EC50 is the concentration that produces a half-maximal response. The low end stands for higher potency in that assay, the high end for lower potency in that assay.
